≈ marks a conversion by molar mass, not a printed value.
What was measured:
Myzus persicae = experiment: Insecticidal activity against Myzus persicae (green peach aphid) assessed as mortality; type: functional
Podosphaera fuliginea = experiment: Fungicidal activity against Podosphaera fuliginea; type: functional, organism-based
[1] = test system: Pseudoperonospora cubensis; experiment: Fungicidal activity against Pseudoperonospora cubensis; type: functional, organism-based

Structure (SMILES) | LC50 (Myzus persicae) | EC50 (Podosphaera fuliginea) | EC50 [1]
CO[C@H](c1cc(C)no1)c1ccccc1/C=N/N=C(\C)c1ccc(Cl)c(Cl)c1 | > 250 µg/mL | 8.8 ppm | > 500 ppm
CO[C@@H](c1cc(C)no1)c1ccccc1/C=N/N=C(\C)c1ccc(Cl)c(Cl)c1 | 20 µg/mL (≈ 48 µM) | 0.7 ppm | 16 ppm
COC(c1cc(C)no1)c1ccccc1/C=N/N=C(\C)c1ccc(Cl)c(Cl)c1 (racemic) | 53 µg/mL (≈ 127 µM) | 2 ppm | 32 ppm

— ChEMBL document CHEMBL3046225, “Effects of Enantiomerism on Fungicidal and Insecticidal Activities of (-Methoxybenzyl)isoxazoles” (J Pestic Sci, 2000)
